Consider 20 compounds from patent publication US10239873B2, “7-azaindole or 4,7-diazaindole derivatives as IKKϵ epsilon and TBK1 inhibitor and pharmaceutical composition comprising same” (GREEN CROSS CORPORATION, priority 2015, dated 2019).

Bounds are passed on as bounds.

By IC50 is commonly meant the midpoint of a concentration-inhibition curve.

For one experiment, the target named is T1, IKKε (Homo sapiens, UniProt Q14164).
T1 construct: purchased Promega and/or Invitrogen V4158; PR8031B; V3991 (not assigned to the two kinases)
T1 sequence (Q14164 1-716): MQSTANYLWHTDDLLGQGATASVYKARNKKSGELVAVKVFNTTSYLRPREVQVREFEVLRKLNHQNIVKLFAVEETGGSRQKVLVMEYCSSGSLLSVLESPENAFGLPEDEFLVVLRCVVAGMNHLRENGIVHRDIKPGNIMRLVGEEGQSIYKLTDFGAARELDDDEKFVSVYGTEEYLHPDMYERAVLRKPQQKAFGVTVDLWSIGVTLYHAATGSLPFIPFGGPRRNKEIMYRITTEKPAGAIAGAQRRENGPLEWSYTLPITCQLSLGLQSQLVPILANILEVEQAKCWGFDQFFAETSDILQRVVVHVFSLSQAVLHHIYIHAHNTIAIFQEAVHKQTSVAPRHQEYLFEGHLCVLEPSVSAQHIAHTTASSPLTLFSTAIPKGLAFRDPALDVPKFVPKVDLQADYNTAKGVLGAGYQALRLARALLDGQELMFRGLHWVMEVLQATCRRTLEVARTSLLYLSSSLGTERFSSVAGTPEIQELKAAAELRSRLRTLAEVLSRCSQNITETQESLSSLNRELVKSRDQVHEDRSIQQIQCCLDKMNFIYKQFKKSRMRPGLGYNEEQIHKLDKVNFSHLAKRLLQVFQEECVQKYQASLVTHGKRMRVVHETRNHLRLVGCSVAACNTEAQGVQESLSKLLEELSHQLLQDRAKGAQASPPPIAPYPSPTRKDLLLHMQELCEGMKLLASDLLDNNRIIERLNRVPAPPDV
In words: ADP-Glo Kinase Assay, inhibition activity on IKKε. Format: biochemical. In short, it runs like this:
(§1)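 Kinase activity measured with the ADP-Glo luminescent ADP-detection kit per manufacturer's protocol, using IKKε or TBK1 kinase enzyme systems. Reaction buffer: 40 mM Tris (pH 7.5), 20 mM MgCl2, 0.1 mg/mL BSA; luminescence read on a luminometer.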

The next experiment has as its target T2, TBK1 (Homo sapiens, UniProt Q9UHD2).
T2 construct: purchased Promega (Invitrogen is also named in the same bracket) V4158; PR8031B; V3991 (not assigned to the two kinases)
T2 sequence (Q9UHD2 1-729): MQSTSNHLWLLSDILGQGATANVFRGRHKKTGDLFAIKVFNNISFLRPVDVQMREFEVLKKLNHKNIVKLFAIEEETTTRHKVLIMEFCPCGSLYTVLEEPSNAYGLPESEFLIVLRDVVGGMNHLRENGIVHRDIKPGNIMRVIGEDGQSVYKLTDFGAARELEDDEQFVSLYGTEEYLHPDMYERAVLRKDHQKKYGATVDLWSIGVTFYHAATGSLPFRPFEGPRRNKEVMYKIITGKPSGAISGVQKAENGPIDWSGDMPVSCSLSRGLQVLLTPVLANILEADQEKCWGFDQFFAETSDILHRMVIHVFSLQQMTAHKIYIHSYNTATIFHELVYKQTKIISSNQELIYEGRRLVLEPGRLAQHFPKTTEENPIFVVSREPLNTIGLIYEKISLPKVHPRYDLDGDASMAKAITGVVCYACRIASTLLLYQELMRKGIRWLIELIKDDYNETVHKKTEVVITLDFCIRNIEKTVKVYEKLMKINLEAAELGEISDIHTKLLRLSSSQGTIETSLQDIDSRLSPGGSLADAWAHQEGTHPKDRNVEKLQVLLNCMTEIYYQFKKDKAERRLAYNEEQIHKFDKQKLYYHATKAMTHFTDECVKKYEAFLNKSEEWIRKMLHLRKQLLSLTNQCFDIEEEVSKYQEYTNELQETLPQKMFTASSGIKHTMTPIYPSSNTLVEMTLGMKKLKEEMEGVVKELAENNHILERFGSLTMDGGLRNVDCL
In words: ADP-Glo Kinase Assay, inhibition activity on TBK1. It counts as biochemical. A digest of the protocol:
as §1
(ADP-Glo turns the ADP formed in a reaction into a luminescent signal.)

As for `CC(C)NC(=O)N1C2C=C(c3c[nH]c4ncc(-c5ccc(CN6CCOCC6)s5)cc34)CC1CCC2` (stereo not shown) [Example 118, N-isopropyl-3-(5-(5-(morpholinomethyl)thiophen-2-yl)-1H-pyrrolo[2,3-b]pyridin-3-yl)-9-azabicyclo[3.3.1]non-3-ene-9-carboxamide], the IC50 on IKKε is 0.61 µM; at TBK1, 0.34 µM.
For `COc1ccc(-c2cnc3[nH]cc(C4=CC(c5ccccc5)N(C(=O)NC(C)C)CC4)c3c2)cc1OC` (stereo not shown) [Example 119, 4-(5-(3,4-Dimethoxyphenyl)-1H-pyrrolo[2,3-b]pyridin-3-yl)-N-isopropyl-2-phenyl-5,6-dihydropyridine-1(2H)-carboxamide], in that order: 3.47 µM and 5.41 µM.
As to `CC1CN(C(=O)NC2CCCC2)CC=C1c1c[nH]c2ncc(-c3ccc(S(C)(=O)=O)cc3)cc12` (stereo not shown) [Example 121, N-cyclopentyl-5-methyl-4-(5-(4-(methylsulfonyl)phenyl)-1H-pyrrolo[2,3-b]pyridin-3-yl)-5,6-dihydropyridine-1(2H)-carboxamide], the values for the IC50 on IKKε and against TBK1 were 0.33 µM and 0.097 µM, respectively.
The corresponding values for `CC1CN(C(=O)NC2CCCC2)CC=C1c1c[nH]c2ncc(-c3cccc(S(C)(=O)=O)c3)cc12` (stereo not shown) [Example 122, N-cyclopentyl-5-methyl-4-(5-(3-(methylsulfonyl)phenyl)-1H-pyrrolo[2,3-b]pyridin-3-yl)-5,6-dihydropyridine-1(2H)-carboxamide] are 0.097 µM and 0.036 µM.
Consider `CC1CN(C(=O)NC2CCCC2)CC=C1c1c[nH]c2ncc(-c3cccc(S(N)(=O)=O)c3)cc12` (stereo not shown) [Example 123, N-cyclopentyl-5-methyl-4-(5-(3-sulfamoylphenyl)-1H-pyrrolo[2,3-b]pyridin-3-yl)-5,6-dihydropyridine-1(2H)-carboxamide], for which the IC50 at IKKε was found to be 0.08 µM; against TBK1 it was 0.028 µM.
The corresponding values for `CC(C)NC(=O)N1CC=C(c2c[nH]c3ncc(-c4ccc(CN5CCN(C)CC5)s4)cc23)C(C)C1` (stereo not shown) [Example 125, N-isopropyl-5-methyl-4-(5-(5-((4-methylpiperazin-1-yl)methyl)thiophen-2-yl)-1H-pyrrolo[2,3-b]pyridin-3-yl)-5,6-dihydropyridine-1(2H)-carboxamide] are 0.027 µM and 0.0036 µM.
For `CC1CN(C(=O)NC2CCCC2)CC=C1c1c[nH]c2ncc(-c3ccc(CN4CCN(C)CC4)s3)cc12` (stereo not shown) [Example 126, N-cyclopentyl-5-methyl-4-(5-(5-((4-methylpiperazin-1-yl)methyl)thiophen-2-yl)-1H-pyrrolo[2,3-b]pyridin-3-yl)-5,6-dihydropyridine-1(2H)-carboxamide], in that order: 0.033 µM and 0.015 µM.
For `CC1CN(C(=O)NC2CCCC2)CC=C1c1c[nH]c2ncc(-c3ccc(CN4CCOCC4)s3)cc12` (stereo not shown) [Example 127, N-cyclopentyl-5-methyl-4-(5-(5-(morpholinomethyl)thiophen-2-yl)-1H-pyrrolo[2,3-b]pyridin-3-yl)-5,6-dihydropyridine-1(2H)-carboxamide], in that order: 0.1 µM and 0.004 µM.
Regarding `NS(=O)(=O)c1cccc(-c2cnc3[nH]cc(C4=CCN(C(=O)OC5CCCC5)CC4)c3c2)c1` [Example 145, Cyclopentyl 4-(5-(3-sulfamoylphenyl)-1H-pyrrolo[2,3-b]pyridin-3-yl)-5,6-dihydropyridine-1(2H)-carboxylate], the IC50 is 0.12 µM at IKKε and 0.033 µM against TBK1.
In the case of `CC(C)OC(=O)N1CC=C(c2c[nH]c3ncc(-c4ccc(S(C)(=O)=O)cc4)cc23)CC1` [Example 148, Isopropyl 4-(5-(4-(methylsulfonyl)phenyl)-1H-pyrrolo[2,3-b]pyridin-3-yl)-5,6-dihydropyridine-1(2H)-carboxylate], the IC50 was 0.25 µM at IKKε and 0.054 µM on TBK1.
The corresponding values for `Cc1nnc(-c2cnc3[nH]cc(C4=CCN(C(=O)OC(C)(C)C)CC4)c3c2)s1` [Example 170, tert-Butyl 4-(5-(5-methyl-1,3,4-thiadiazol-2-yl)-1H-pyrrolo[2,3-b]pyridin-3-yl)-5,6-dihydropyridine-1(2H)-carboxylate] are 0.28 µM and 0.032 µM.
The corresponding values for `CN(C)S(=O)(=O)c1ccc(-c2cnc3[nH]cc(C4=CCN(C(=O)OC5CCCC5)CC4)c3c2)cc1` [Example 179, Cyclopentyl 4-(5-(4-(N,N-dimethylsulfamoyl)phenyl)-1H-pyrrolo[2,3-b]pyridin-3-yl)-5,6-dihydropyridine-1(2H)-carboxylate] are 0.5 µM and 0.34 µM.
For `O=C(c1cccs1)N1CC=C(c2c[nH]c3ncc(-c4ccc(S(=O)(=O)N5CCOCC5)cc4)cc23)CC1` [Example 190, (4-(5-(4-(Morpholinosulfonyl)phenyl)-1H-pyrrolo[2,3-b]pyridin-3-yl)-5,6-dihydropyridin-1(2H)-yl)(thiophen-2-yl)methanone], the values for the half-inhibitory concentration (IC50) against IKKε and on TBK1 were 0.39 µM and 0.14 µM, respectively.
As for `O=C(c1cccs1)N1CC=C(c2c[nH]c3ncc(-c4ccc5[nH]ncc5c4)cc23)CC1` [Example 204, (4-(5-(1H-indazol-5-yl)-1H-pyrrolo[2,3-b]pyridin-3-yl)-5,6-dihydropyridin-1(2H)-yl)(thiophen-2-yl)methanone], the IC50 was 0.28 µM at IKKε and 0.057 µM against TBK1.
For `CN1CCN(Cc2ccc(-c3cnc4[nH]cc(C5=CCN(C(=O)c6cccs6)CC5)c4c3)s2)CC1` [Example 205, (4-(5-(5-((4-methylpiperazin-1-yl)methyl)thiophen-2-yl)-1H-pyrrolo[2,3-b]pyridin-3-yl)-5,6-dihydropyridin-1(2H)-yl)(thiophen-2-yl)methanone], the figures for the IC50 at IKKε and at TBK1 were 0.023 µM and 0.0033 µM, respectively.
The corresponding values for `O=C(c1ccc(-c2cnc3[nH]cc(C4=CCN(C(=O)c5cccs5)CC4)c3c2)cc1)N1CCOCC1` [Example 209, (4-(5-(4-(morpholine-4-carbonyl)phenyl)-1H-pyrrolo[2,3-b]pyridin-3-yl)-5,6-dihydropyridin-1(2H)-yl)(thiophen-2-yl)methanone] are 0.14 µM and 0.007 µM.
For `CS(=O)(=O)c1cccc(-c2cnc3[nH]cc(C4=CCN(C(=O)NC5CCCC5)CC4)c3n2)c1` [Example 228, N-cyclopentyl-4-(2-(3-(methylsulfonyl)phenyl)-5H-pyrrolo[2,3-b]pyrazin-7-yl)-5,6-dihydropyridine-1(2H)-carboxamide], in that order: 0.4 µM and 0.09 µM.
For `COc1ccc(-c2cnc3[nH]cc(C4CCN(C(=O)NC(C)C)CC4)c3c2)cc1OC` [Example 235, 4-(5-(3,4-dimethoxyphenyl)-1H-pyrrolo[2,3-b]pyridin-3-yl)-N-isopropylpiperidine-1-carboxamide], in that order: > 10 µM and > 10 µM.
Regarding `COc1ccc(-c2cnc3[nH]cc(C4=CCN(C(=O)NC(C)C)C4)c3c2)cc1OC` [Example 237, 3-(5-(3,4-dimethoxyphenyl)-1H-pyrrolo[2,3-b]pyridin-3-yl)-N-isopropyl-2,5-dihydro-1H-pyrrol-1-carboxamide], the concentration for half-maximal inhibition (IC50) against IKKε and on TBK1 was > 10 µM throughout.
In the case of `COc1ccc(-c2cnc3[nH]cc(C4CCN(C(=O)NC(C)C)C4)c3c2)cc1OC` (stereo not shown) [Example 238, 3-(5-(3,4-dimethoxyphenyl)-1H-pyrrolo[2,3-b]pyridin-3-yl)-N-isopropylpyrrolidine-1-carboxamide], the results for the IC50 against IKKε and at TBK1 were 6.05 µM and 6.23 µM, respectively.
